Measurements: ChEMBL document CHEMBL1944637, “Asymmetric synthesis and cytotoxicity of (-)-saframycin A analogues” (Eur J Med Chem, 2012)

Key:
HCT-8 = assay: Cytotoxicity against human HCT8 cells assessed as cell viability after 72 hrs by MTT assay; assay type: functional, cell-based; settings: HCT-8, 72 h
Bel-7402 = assay: Cytotoxicity against human Bel7402 cells assessed as cell viability after 72 hrs by MTT assay; assay type: functional, cell-based; settings: Bel-7402, 72 h
KETR3 = assay: Cytotoxicity against human Ketr3 cells assessed as cell viability after 72 hrs by MTT assay; assay type: functional, cell-based; settings: KETR3, 72 h
A2780 = assay: Cytotoxicity against human A2780 cells assessed as cell viability after 72 hrs by MTT assay; assay type: functional, cell-based; settings: A2780, 72 h
MCF7 = assay: Cytotoxicity against human MCF7 cells assessed as cell viability after 72 hrs by MTT assay; assay type: functional, cell-based; settings: MCF7, 72 h
A549 [1] = assay: Cytotoxicity against human A549 cells assessed as cell viability after 72 hrs by MTT assay; assay type: functional, cell-based; settings: A549, 72 h
[2] = Cytotoxicity against human BGC803 cells assessed as cell viability after 72 hrs by MTT assay; assay type: functional, cell-based; settings: BGC803, 72 h
HeLa = assay: Cytotoxicity against human HeLa cells assessed as cell viability after 72 hrs by MTT assay; assay type: functional, cell-based
[3] = Cytotoxicity against human HELF cells assessed as cell viability after 72 hrs by MTT assay; assay type: functional, cell-based
KB = assay: Cytotoxicity against human KB cells assessed as cell viability after 72 hrs by MTT assay; assay type: functional, cell-based
A549 [4] = assay: Ratio of Saframycin A IC50 to compound IC50 for human A549 cells; assay type: functional

SMILES | IC50 (HCT-8) [nM] | IC50 (Bel-7402) [nM] | IC50 (KETR3) [nM] | IC50 (A2780) [nM] | IC50 (MCF7) [nM] | IC50 (A549 [1]) [nM] | IC50 [2] [nM] | IC50 (HeLa) [nM] | IC50 [3] [nM] | IC50 (KB) [nM] | Ratio IC50 (A549 [4])
COC1=C(C)C(=O)C2=C(C1=O)[C@@H]1[C@@H]3CC4=C(C(=O)C(OC)=C(C)C4=O)[C@H](CNC(=O)OC(C)(C)C)N3[C@@H](C#N)[C@H](C2)N1C | > 100 | 5.38 | 12.9 | 22.7 | 8.89 | 34.3 | 66.2 | 7.41 | 18.4 | 29.4 | –
COC1=C(C)C(=O)C2=C(C1=O)[C@@H]1[C@@H]3CC4=C(C(=O)C(OC)=C(C)C4=O)[C@H](CNC(=O)c4cc5ccccc5[nH]4)N3[C@@H](C#N)[C@H](C2)N1C | 90.5 | 11.5 | 19.7 | 11.2 | 22.9 | 35 | 26.3 | 5.29 | 17.5 | 14.9 | –
COC1=C(C)C(=O)C2=C(C1=O)[C@@H]1[C@@H]3CC4=C(C(=O)C(OC)=C(C)C4=O)[C@H](CNC(=O)/C=C/c4ccc(OC)c(OC)c4OC)N3[C@@H](C#N)[C@H](C2)N1C | 27.4 | 11.4 | 15.5 | 33.7 | 5.44 | 81.8 | 6.27 | 3.85 | > 100 | 9.85 | –
COC1=C(C)C(=O)C2=C(C1=O)[C@@H]1[C@@H]3CC4=C(C(=O)C(OC)=C(C)C4=O)[C@H](CNC(=O)/C=C/c4ccnc5ccccc45)N3[C@@H](C#N)[C@H](C2)N1C | 18.2 | 18.2 | 11.5 | 17.5 | 2.23 | 35.7 | 17.1 | 8.33 | 23.4 | 5.7 | –
COC1=C(C)C(=O)C2=C(C1=O)[C@@H]1[C@@H]3CC4=C(C(=O)C(OC)=C(C)C4=O)[C@H](CNC(=O)CNC(=O)c4ccccc4)N3[C@@H](C#N)[C@H](C2)N1C | 58.5 | 22.4 | 23.6 | 43.9 | 39.5 | 10 | 27.7 | 10.7 | 16.7 | 16.9 | –
COC1=C(C)C(=O)C2=C(C1=O)[C@@H]1[C@@H]3CC4=C(C(=O)C(OC)=C(C)C4=O)[C@H](CNC(=O)c4ccc5c(c4)OCO5)N3[C@@H](C#N)[C@H](C2)N1C | 21.1 | 2.02 | 6.88 | 5.11 | 4.79 | 69 | 20 | 3.34 | 2.18 | 3.94 | –
COC1=C(C)C(=O)C2=C(C1=O)[C@@H]1[C@@H]3CC4=C(C(=O)C(OC)=C(C)C4=O)[C@H](CNC(=O)c4cc(OC)c(OC)c(OC)c4)N3[C@@H](C#N)[C@H](C2)N1C | 14.9 | 3.03 | 3.63 | 3.67 | 1.13 | 18.8 | 4.19 | 2.52 | 3.38 | 1.27 | –
COC1=C(C)C(=O)C2=C(C1=O)[C@@H]1[C@@H]3CC4=C(C(=O)C(OC)=C(C)C4=O)[C@H](CNC(=O)/C=C/c4ccc(C(C)(C)C)cc4)N3[C@@H](C#N)[C@H](C2)N1C | > 100 | > 100 | > 100 | – | 25.6 | > 100 | 31 | 31.2 | > 100 | 26.3 | –
CCc1ccc(/C=C/C(=O)NC[C@H]2C3=C(C[C@H]4[C@H]5C6=C(C[C@@H]([C@H](C#N)N24)N5C)C(=O)C(C)=C(OC)C6=O)C(=O)C(C)=C(OC)C3=O)cc1 | > 100 | 24.3 | 52.1 | 25.5 | 18.5 | 96.7 | 21.2 | 8.68 | > 100 | 28.4 | –
COC1=C(C)C(=O)C2=C(C1=O)[C@@H]1[C@@H]3CC4=C(C(=O)C(OC)=C(C)C4=O)[C@H](CNC(=O)/C=C/c4cccc(C(F)(F)F)c4)N3[C@@H](C#N)[C@H](C2)N1C | 43.3 | 29.7 | 28.9 | 39.8 | 4.2 | 77.1 | 22.3 | 7.9 | > 100 | 11.7 | –
COC1=C(C)C(=O)C2=C(C1=O)[C@@H]1[C@@H]3CC4=C(C(=O)C(OC)=C(C)C4=O)[C@H](CNC(=O)c4ccccn4)N3[C@@H](C#N)[C@H](C2)N1C | 22.1 | 3.8 | 15.1 | 11.9 | 15.6 | 30 | 32.1 | 7.27 | 6.57 | 9.17 | –
COC1=C(C)C(=O)C2=C(C1=O)[C@@H]1[C@@H]3CC4=C(C(=O)C(OC)=C(C)C4=O)[C@H](CNC(=O)c4cc(Br)ccc4Cl)N3[C@@H](C#N)[C@H](C2)N1C | > 100 | – | – | – | – | – | 66.2 | > 100 | – | – | –
COC1=C(C)C(=O)C2=C(C1=O)[C@@H]1[C@@H]3CC4=C(C(=O)C(OC)=C(C)C4=O)[C@H](CNC(=O)c4cnccn4)N3[C@@H](C#N)[C@H](C2)N1C | 10.5 | 1.87 | 1.61 | 7.17 | 3.06 | 1.89 | 12.1 | 1.89 | 1.53 | 1.85 | 20
COC1=C(C)C(=O)C2=C(C1=O)[C@@H]1[C@@H]3CC4=C(C(=O)C(OC)=C(C)C4=O)[C@H](CNC(=O)/C=C/c4ccc(OC)cc4)N3[C@@H](C#N)[C@H](C2)N1C | 46.7 | 6.23 | 11 | 14.4 | 5.35 | 23.8 | 6.91 | 7.77 | 4.88 | 9.04 | –
COC1=C(C)C(=O)C2=C(C1=O)[C@@H]1[C@@H]3CC4=C(C(=O)C(OC)=C(C)C4=O)[C@H](CNC(=O)c4ccc5ccccc5n4)N3[C@@H](C#N)[C@H](C2)N1C | 43.4 | 23.7 | 69.9 | 29.6 | 14.9 | 65.3 | 21.5 | 9.51 | 19.8 | 16.6 | –
COC1=C(C)C(=O)C2=C(C1=O)[C@@H]1[C@@H]3CC4=C(C(=O)C(OC)=C(C)C4=O)[C@H](CNC(=O)c4ccco4)N3[C@@H](C#N)[C@H](C2)N1C | 12.4 | 1.22 | 3.01 | 3.87 | 15.3 | 0.95 | 16 | 2.58 | 1.68 | 3.55 | –
COc1c(C)cc2c(c1O)[C@@H]1[C@@H]3Cc4cc(C)c(OC)c(O)c4[C@H](CNC(=O)OC(C)(C)C)N3[C@@H](C#N)[C@H](C2)N1C | 63.8 | 32.4 | 23.7 | 45 | 17.3 | 26.8 | 32.1 | 92.7 | 19.5 | 31.4 | –
COC1=C(C)C(=O)C2=C(C1=O)[C@@H]1[C@@H]3CC4=C(C(=O)C(OC)=C(C)C4=O)[C@H](CNC(=O)c4cccc(C(F)(F)F)c4)N3[C@@H](C#N)[C@H](C2)N1C | > 100 | 21 | 30.6 | 47.1 | 26.1 | > 100 | 58.5 | 43.2 | 25.7 | 53.9 | –
COC1=C(C)C(=O)C2=C(C1=O)[C@@H]1[C@@H]3CC4=C(C(=O)C(OC)=C(C)C4=O)[C@H](CNC(=O)c4nccc5ccccc45)N3[C@@H](C#N)[C@H](C2)N1C | > 100 | 84.7 | > 100 | 98 | 24.2 | 88.6 | 58.5 | 26.6 | 85.4 | 75 | –
COC1=C(C)C(=O)C2=C(C1=O)[C@@H]1[C@@H]3CC4=C(C(=O)C(OC)=C(C)C4=O)[C@H](CNC(=O)C(C)=O)N3[C@@H](C#N)[C@H](C2)N1C [SAFRAMYCIN A] | 2.49 | 1.83 | 9.56 | 2.75 | 6.39 | 40.4 | 11 | 1.06 | 2.54 | 2.23 | –
COC1=C(C)C(=O)C2=C(C1=O)[C@@H]1[C@@H]3CC4=C(C(=O)C(OC)=C(C)C4=O)[C@H](CNC(=O)c4cccs4)N3[C@@H](C#N)[C@H](C2)N1C | > 100 | 16.4 | 37.3 | 27.4 | 45.2 | > 100 | 4.19 | 17.4 | 27.2 | 17.5 | –
